For assay [1], the system named is BaF3 TELJAK cells (BafT_J2). Put plainly: Cellular screening, BaF3 TELJAK2 cells (Alamar Blue). The class given is cell-based. The settings on record: Mus musculus, BaF3; 48-72 hr incubation; read-out: BafT_J2_IC50_μM.
For another assay, the system named is BaF3 wild-type cells. Put plainly: Cellular screening, BaF3 wild-type cells (Alamar Blue). The class given is cell-based. As to conditions: Mus musculus, 48-72 hr incubation, read-out: BAF3wt_IC50_μM. The essentials: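 Parental BaF3 cells in DMEM with 10% FCS and 10% WEHI 3B conditioned medium were seeded at 50,000–200,000 cells/mL (1.1× final). Compounds were added as 10× solutions, with dilution plates prepared at 20 μM.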
For orientation: The colour change of resazurin is a common sign of viable cells or microbes.

The test system of the next assay is CTLL2. Briefly: Cellular screening, CTLL2 cells (Alamar Blue). It counts as cell-based. As to conditions: Mus musculus, CTLL-2; 48-72 hr incubation; read-out: CTLL2_IC50_μM.
The subject of assay [2] is IL-3 induced STAT5 phosphorylation in BaF3 cells. Briefly: Western blot of IL-3 induced STAT5 phosphorylation in BaF3 cells. The class given is cell-based, murine. As to conditions: 2 hours compound, mouse IL-3 5 ng/ml 15 minutes. How it is done:
The Western blots were treated with a STAT5 phospho-specific antibody and exposed to film for 5 minutes (top blot) and 1 minute (middle blot).
The murine pro-B cell line BaF3 was routinely maintained in RPMI 1640 media containing 10% FCS. On the day of the experiment, cells were washed twice in PBS, and resuspended in RPMI 1640 media containing 0.1% FCS. […] Mouse IL-3 was then added to cells at a final concentration of 5 ng/ml for 15 minutes. Cells were then placed on ice and washed twice in ice-cold PBS. Washed cell pellets were snap-frozen in liquid nitrogen and stored at −80° C.
Cell pellets were lysed on ice in RIPA buffer, and lysates clarified by centrifugation (20,000×g, 4° C., 5 min). The protein concentration of lysates was determined by the Bradford method, and equal amounts of protein (60 μg/lane) were separated by SDS-PAGE. Protein was then transferred to PVDF, and Western blotting performed using an antibody that specifically recognizes STAT5 phosphorylated at tyrosine 694. The membrane was then stripped and reprobed with an antibody that recognizes total STAT5 protein.
In general terms: In western blotting, separated proteins are transferred to a membrane and probed.

Assay [3] has as its system pYSTAT5 in erythroid cells (CD45lo, CD71hi) from bone marrow. Briefly: Ex vivo pYSTAT5 flow cytometry in erythroid cells from JAK2 V617F positive patients. It counts as cell-based, human. The settings on record: 3 μM to 0.0041 μM, one hour, erythropoietin stimulated 10 minutes, patient bone marrow. An excerpt:
To assess the activity of small molecule inhibitors of JAK2 an assay has been developed to quantify the activity of the JAK-STAT pathway by measuring the phosphorylation status of the downstream protein STAT5. After ligand binding, a haemopoietic cytokine receptor undergoes conformational change activating associated JAK2 protein. Activated JAK2 then phosphorylates the intracellular portion of the receptor forming binding sites for the recruitment of intracellular signaling proteins. […]
Results of flow cytometry experiments are presented in two different formats (FIG. 7C). The pYSTAT5 positive population is quantitated as the percentage of cells in the upper right quadrant of the dot plot graphs (FIGS. 7A and B). […]
The second format of presentation is presented in the right panel of FIG. 7C. This measurement represents the mean fluorescence intensity in the pYSTAT5 channel and includes both erythroid cells that are stimulated by EPO and those that are not. This is an absolute value measurement of fluorescence and there was variability between these values between the three individuals tested. As the concentration of inhibitor is decreased the mean fluorescence of the total erythroid population moved towards the value of the positive control.
A general note: Flow cytometry measures light scatter and fluorescence of single cells or particles in a stream.

“Also recorded” adds a separate entry of the source.

Regarding `N#CCNC(=O)c1ccc(-c2ccnc(Nc3ccc(N4CCOCC4)cc3)n2)cc1` [Compound 3, N-(cyanomethyl)-4-(2-(4-morpholinophenyl-amino)pyrimidin-4-yl)benzamide], the IC50 in assay [1] is under 1 µM; with BaF3 wild-type cells, under 5 µM; with CTLL2 it was under 5 µM. Moreover, the “effect on IL-3 induced STAT5 phosphorylation (Western blot)” value in assay [2] is “dose-dependent effect; also recorded: decrease in STAT5 phosphorylation”. In addition, the results for the “effect on pYSTAT5 (STAT5 phosphorylation) in erythroid cells” value in assay [3] and in assay [3] (listed as compound 3) were “dose-dependent reduction” and “dose-dependent increase in inhibition”, respectively.

These data come from patent US12570614B2, “Phenyl amino pyrimidine compounds and uses thereof” (GlaxoSmithKline LLC, priority 2007, dated 2026).
